Experimental data as given in US20160309717A1, “Compounds with Nematicidal Activity” (BAYER CROPSCIENCE AKTIENGESELLSCHAFT, priority 2013, published 2016).

Assays:
[1] = Measurement of log P values by HPLC on reversed phase columns (EEC directive 79/831 Annex V.A8); type: physicochemical; details: for LogP [b] / chromatographic logP: LC-MS at pH 2.7, 0.1% formic acid in water / acetonitrile; for LogP [c]: LC-MS at pH 7.8, 0.001 molar ammonium hydrogen carbonate in water / acetonitrile; for chromatographic logP: reversed phase HPLC column, read-out: LogP [b]
Protocol: Measurement of Log P-Values:
Measurement of log P values was performed according EEC directive 79/831 Annex V.A8 by HPLC (High Performance Liquid Chromatography) on reversed phase columns with the following methods:
^[a] Measurement was done at pH 2.3 with 0.1% phosphoric acid and acetonitrile as eluent with a linear gradient from 10% acetonitrile to 95% acetonitrile.
^[b]measurement of LC-MS was done at pH 2.7 with 0.1% formic acid in water and with acetonitrile (contains 0.1% formic acid) as eluent with a linear gradient from 10% acetonitrile to 95% acetonitrile.
^[c] Measurement with LC-MS was done at pH 7.8 with 0.001 molar ammonium hydrogen carbonate solution in water as eluent with a linear gradient from 10% acetonitrile to 95% acetonitrile.
Calibration was done with not branched alkan2-ones (with 3 to 16 carbon atoms) with known log P-values (measurement of log P values using retention times with linear interpolation between successive alkanones). Lambda-maX-values were determined using UV-spectra from 200 nm to 400 nm and the peak values of the chromatographic signals.

[2] = test system: Meloidogyne incognita; assay: Meloidogyne incognita test, gall formation on salad seedlings in sand; type: in vivo; details: application rate 20 ppm; after 14 days; 100% = no galls found
Protocol: Solvent: 125.0 Parts by Weight of Acetone
To produce a suitable preparation of active compound, 1 part by weight of active compound is mixed with the stated amount of solvent, and the concentrate is diluted with water to the desired concentration.
Vessels are filled with sand, a solution of the active ingredient, a suspension containing eggs and larvae of the southern root-knot nematode (Meloidogyne incognita) and salad seeds. The salad seeds germinate and the seedlings grow. Galls develop in the roots.
After 14 days the nematicidal activity is determined on the basis of the percentage of gall formation. 100% means no galls were found and 0% means the number of galls found on the roots of the treated plants was equal to that in untreated control plants.

[3] = test system: Cooperia curticei; assay: Cooperia curticei test (COOPCU), larval mortality
Protocol: (§1) Solvent: Dimethyl Sulfoxide
(§2) To produce a suitable preparation of active compound, 10 mg of active compound are dissolved in 0.5 ml solvent, and the concentrate is diluted with “Ringer's solution” to the desired concentration.
Approximately 40 nematode larvae (Cooperia curticei) are transferred into a test tube containing the compound solution.
After 5 days percentage of larval mortality is recorded. 100% efficacy means all larvae are killed; 0% efficacy means no larvae are killed.

[4] = test system: Haemonchus contortus; assay: microbe, parasite or virus in culture; details: 120 h, read-out: activity (percentage of larval mortality)
Protocol: as §1, §2
Approximately 40 larvae of the red stomach worm (Haemonchus contortus) are transferred into a test tube containing compound solution.
After 5 days percentage of larval mortality are recorded. 100% efficacy means all larvae are killed, 0% efficacy means no larvae are killed.

SMILES	LogP [b] [1]	LogP [c] [1]	further results
O=C(NCC1(c2cccc(Cl)n2)CC1)c1cccnc1C(F)(F)F [Example 1]	2,42	2,41	–
O=C(NCC1(c2cccc(Cl)n2)CC1)c1c(F)cccc1F [Example 2]	2,63	2,62	–
O=C(NCC1(c2cccc(Cl)n2)CC1)c1ccccc1I [Example 3]	2,98	2,96	–
O=C(NCC1(c2cccc(Cl)n2)CC1)c1ccccc1C(F)(F)F [Example 4]	3	2,99	–
O=C(NCC1(c2cccc(Cl)n2)CC1)c1cccnc1Cl [Example 5]	^[b]2,11 ^[c]2,11	^[b]2,11 ^[c]2,11	–
Cn1cc(C(=O)NCC2(c3cccc(Cl)n3)CC2)c(C(F)F)n1 [Example 6]	2,25	2,24	–
O=C(NCC1(c2ccc(Br)cn2)CC1)c1ccccc1C(F)(F)F [Example 7]	^[b]3,1 ^[c]3,1	^[b]3,1 ^[c]3,1	–
O=C(NCC1(c2ccc(Br)cn2)CC1)c1ccccc1I [Example 8]	3,1	3,09	–
O=C(NCC1(c2ccc(Br)cn2)CC1)c1c(F)cccc1F [Example 9]	^[b]2,71 ^[c]2,71	^[b]2,71 ^[c]2,71	–
O=C(NCC1(c2ccc(Br)cn2)CC1)c1cccnc1C(F)(F)F [Example 10]	2,51	2,5	nematicidal activity on the basis of the percentage of gall formation [2]: 90%
O=C(NCC1(c2ccc(Br)cn2)CC1)c1cccnc1Cl [Example 11]	2,17	2,18	–
Cn1cc(C(=O)NCC2(c3ccc(Br)cn3)CC2)c(C(F)F)n1 [Example 12]	2,31	2,33	–
Cn1cc(C(=O)NCC2(c3ncc(C(F)(F)F)cc3Cl)CC2)c(C(F)F)n1 [Example 13, N-[[1-[3-chloro-5-(trifluoromethyl)-2-pyridyl]cyclopropyl]methyl]-3-(difluoromethyl)-1-methyl-pyrazole-4-carboxamide]	–	–	mortality at 20 ppm ([3]; Cooperia curticei, 120 h, read-out: activity (percentage of larval mortality)): 100%; mortality at 20 ppm [4]: 80%; nematicidal activity on the basis of the percentage of gall formation [2]: 100%; chromatographic logP [1]: 2.63
O=C(NCC1(c2ncc(Br)cc2Cl)CC1)c1cccnc1C(F)(F)F [Example 14, N-{[1-(5-bromo-3-chloropyridin-2-yl)cyclopropyl]methyl}-2-(trifluoromethyl)nicotinamide]	–	–	chromatographic logP [1]: 2.88
O=C(NCC1(c2ccc(Cl)cn2)CC1)c1ccccc1C(F)(F)F [Example 15]	2,91	2,96	activity (percentage of larval mortality) ([3]; application rate 20 ppm, after 5 days, 100% = all larvae killed): 90%; nematicidal activity on the basis of the percentage of gall formation [2]: 70%
